The text below walks through data of US4736045A, “Process for fluorinating ethers” (priority 1983, dated 1988).

The data set is described as follows: Critical temperature and normal boiling point of heat pump working fluids. The class given is physicochemical. Conditions: working fluid in a heat pump (TC = 150° C., TE = 100° C.).

`FC(F)(F)C(F)(F)C(F)(F)C1(F)OC(F)(F)C(F)(F)C1(F)F` (stereo not shown) [perfluoro-2-propyloxolane] returned a critical temperature of 206 °C and a normal boiling point of 79 °C.
The compound `COCC(F)(F)C(F)C(F)(F)F` (stereo not shown) [1.1.1.2.3.3. hexafluoro butyl methyl ether] had a critical temperature of 236 °C and a normal boiling point of 87 °C.
